Common to all, as to test: ≥ marks a high value that may be exact or a test limit, other limits are often not marked, values filed in µg/mL are converted to µM
The test system of assay [1] is Staphylococcus aureus.
In assay [2] the test system is Klebsiella pneumoniae ST258.
The test system of assay [3] is Escherichia coli ATCC 25922.
Assay [4] relates to Bacillus subtilis 168.
The test system of assay [5] is Escherichia coli ST131.
For assay [6], the system named is Escherichia coli B.
Assay [7] deals with Pseudomonas aeruginosa.
Assay [8] deals with Listeria monocytogenes EGD.
Assay [9] has as its system Candida albicans 820.
The subject of assay [10] is Escherichia coli ML-35p.
Assay [11] has as its system Pseudomonas aeruginosa ATCC 27853.
Assay [12] relates to Micrococcus luteus A270.
Assay [13] relates to Klebsiella pneumoniae ATCC 13883.
In assay [14] the test system is Candida albicans MDM8.
Assay [15] deals with Bacillus subtilis ATCC 6633.
The test system of assay [16] is Bacillus thuringiensis.
The test system of assay [17] is Salmonella enterica subsp. arizonae ATCC 13314.
Assay [18] has as its system Alcaligenes faecalis ATCC 8750.
The test system of assay [19] is Bacillus subtilis CCT 2471.
Assay [20] concerns Staphylococcus aureus CCT 6538.
The test system of assay [21] is Candida albicans.
Assay [22] deals with Escherichia coli CCT 1371.
The test system of assay [23] is Staphylococcus saprophyticus.
The test system of assay [24] is Escherichia coli SBS 363.
In assay [25] the test system is Enterococcus faecium t62764.
Assay [26] relates to Pseudomonas aeruginosa 198.
Assay [27] has as its system Klebsiella pneumoniae ESBL 63575.
In assay [28] the test system is Staphylococcus aureus ATCC 25923.
For assay [29], the system named is Staphylococcus aureus C623.
Assay [30] deals with Enterococcus faecalis f43559.
For assay [31], the system named is Pseudomonas aeruginosa PAO1 H103.
In assay [32] the test system is Escherichia coli ESBL 64771.
For assay [33], the system named is Stenotrophomonas maltophilia ATCC 13637.
The subject of assay [34] is Enterobacter cloacae 218R.
Assay [35] relates to Enterococcus faecalis ATCC 29212.
The subject of assay [36] is Enterococcus faecium mic80.
Assay [37] deals with Klebsiella pneumoniae ESBL 61962.
In assay [38] the test system is Pseudomonas aeruginosa LES400.
Assay [39] concerns Pseudomonas aeruginosa H1030.
Assay [40] has as its system Enterococcus faecalis W61950.
For assay [41], the system named is Pseudomonas aeruginosa H1027.
For assay [42], the system named is Pseudomonas aeruginosa 9.
Assay [43] has as its system Pseudomonas aeruginosa 213.
In assay [44] the test system is Escherichia coli ESBL 63103.
The subject of assay [45] is Staphylococcus aureus ATCC 6538P.
For assay [46], the system named is Staphylococcus aureus TK784.
In assay [47] the test system is Micrococcus luteus ATCC 10240.
Assay [48] relates to Klebsiella pneumoniae ATCC 10031.
Assay [49] relates to Staphylococcus epidermidis ATCC 12228.
Assay [50] concerns Shigella dysenteriae ATCC 9752.
Assay [51] has as its system Salmonella enterica subsp. enterica serovar Typhimurium ATCC 14028.

In general, MIC refers to the lowest concentration that inhibits growth of the organism. Read a high MIC as a need for much substance.

≈ marks a conversion by molar mass, not a printed value. Where “and” joins values, the source holds several entries; their conditions need not be identical. Equal values may be shown once.

As to `CC[C@H](C)[C@H](NC(=O)[C@H](CC(C)C)NC(=O)[C@H](CCCCN)NC(=O)CNC(=O)[C@H](CC(C)C)NC(=O)[C@@H](NC(=O)[C@H](CCCCN)NC(=O)[C@H](CCCCN)NC(=O)[C@H](Cc1c[nH]c2ccccc12)NC(=O)[C@H](CCCCN)NC(=O)CN)[C@@H](C)CC)C(=O)N[C@@H](CCCN=C(N)N)C(N)=O` [GKWKKILGKLIR], the minimum inhibitory concentration (MIC) in assay [1] is 60 µM (≈ 86.3 µg/mL); in assay [2], ≥ 32 µM; in [3], 2 µM (≈ 2.88 µg/mL); in assay [4] it was 1.3 µM (≈ 1.87 µg/mL); in [5], 2 µM (≈ 2.88 µg/mL); in assay [6] it was 1.8 µM (≈ 2.59 µg/mL). For the same compound, the MIC in assay [7] came to 14.2 µM (≈ 20.4 µg/mL).
Regarding `CC[C@H](C)[C@@H]1NC(=O)[C@H](CCCN=C(N)N)NC(=O)[C@@H]2CSSC[C@@H]3NC(=O)[C@H](C(C)C)NC(=O)CNC(=O)[C@H](Cc4ccccc4)NC(=O)[C@H](Cc4ccc(O)cc4)NC(=O)[C@H](C(C)C)NC(=O)[C@H](CCC(=O)O)NC(=O)[C@H](CC(C)C)NC(=O)CNC(=O)[C@H](CC(C)C)NC(=O)[C@H](CSSC[C@H](NC(=O)[C@H](CCCN=C(N)N)NC(=O)[C@H](CCCN=C(N)N)NC(=O)[C@H](C)NC(=O)[C@H](CC(C)C)NC(=O)[C@H](CCCN=C(N)N)NC(=O)CNC(=O)[C@H](Cc4cnc[nH]4)NC(=O)[C@H](CC(C)C)NC(=O)[C@H](Cc4ccccc4)NC3=O)C(=O)N[C@H](C(=O)N[C@@H](CCCN=C(N)N)C(=O)O)CSSC[C@H](NC(=O)[C@@H](NC(=O)[C@H](CCCN=C(N)N)NC(=O)[C@@H](N)CCCN=C(N)N)[C@@H](C)CC)C(=O)N[C@@H](CCCN=C(N)N)C(=O)N2)NC(=O)[C@H](CCCN=C(N)N)NC(=O)CNC1=O` [RRICRCRIGRCLGLEVYFGVCFLHGRLARRCCR], the minimum inhibitory concentration (MIC) is 1.3 µM and 1.8 µM in [8]; 2.3 µM and 4.5 µM in [9]; 1.6 µM and 3.5 µM in assay [10].
For `CC[C@H](C)[C@H](NC(=O)[C@H](CC(C)C)NC(=O)[C@H](CO)NC(=O)[C@H](CC(C)C)NC(=O)[C@H](CC(C)C)NC(=O)[C@@H](N)CO)C(=O)N[C@@H](CCCN=C(N)N)C(=O)N[C@@H](CCCCN)C(=O)N[C@@H](CC(C)C)C(=O)N[C@H](C(=O)N[C@H](C(N)=O)[C@@H](C)O)[C@@H](C)CC` [SLLSLIRKLIT], the MIC in assay [11] is 1.6 µM (≈ 2.01 µg/mL); in assay [12], 0.8 µM (≈ 1 µg/mL); in assay [13] it was ≥ 40 µM; in assay [14] it was 0.8 µM (≈ 1 µg/mL); in assay [15], 6.2 µM (≈ 7.78 µg/mL); in [3] it was 40 µM (≈ 50.2 µg/mL). The MIC was 20 µM (≈ 25.1 µg/mL) in [16]; 25 µM (≈ 31.4 µg/mL) in assay [17]; ≥ 40 µM in [18]; 8 µM (≈ 10 µg/mL) in assay [19]; 4 µM (≈ 5.02 µg/mL) in assay [20]; 20 µM (≈ 25.1 µg/mL) in assay [21]. Further, the MIC worked out at 20 µM (≈ 25.1 µg/mL) in [22], 20 µM (≈ 25.1 µg/mL) in assay [23] and 1.6 µM (≈ 2.01 µg/mL) in assay [24].
As to `CC[C@H](C)[C@H](NC(=O)[C@H](C)N)C(=O)N[C@@H](CCCN=C(N)N)C(=O)N[C@@H](CCCN=C(N)N)C(=O)N[C@@H](Cc1c[nH]c2ccccc12)C(=O)N[C@@H](CCCN=C(N)N)C(=O)N[C@H](C(=O)N[C@@H](CCCN=C(N)N)C(=O)N[C@@H](CCCCN)C(=O)O)[C@@H](C)CC` [AIRRWRIRK], the MIC in assay [25] is 8.77 µM (≈ 11 µg/mL); in [26] it was ≥ 137 µM; in assay [27], ≥ 137 µM; in [28], 34.3 µM (≈ 43 µg/mL); in [29], ≥ 34.3 µM; in assay [30], ≥ 137 µM. In addition, the MIC in assay [31] was ≥ 137 µM; in [32], ≥ 68.6 µM; in assay [33], ≥ 68.6 µM; in assay [34], ≥ 68.6 µM; in assay [35] it was > 137 µM; in assay [36] it was ≥ 68.6 µM. Moreover, the minimum inhibitory concentration (MIC) in [37], in assay [38], in assay [39], in assay [40], in assay [41] and in assay [42] was ≥ 137 µM each time. Besides, the values for the minimal inhibitory concentration (MIC) in [43] and in assay [44] were ≥ 137 µM and ≥ 68.6 µM, respectively.
Consider `CC(C)C[C@H](NC(=O)[C@H](CC(C)C)NC(=O)[C@H](CCCCN)NC(=O)[C@H](CCCCN)NC(=O)[C@H](CC(C)C)NC(=O)[C@H](Cc1c[nH]c2ccccc12)NC(=O)[C@H](CCCCN)NC(=O)[C@H](CC(C)C)NC(=O)[C@@H](N)CC(C)C)C(=O)N[C@@H](CCCCN)C(=O)N[C@@H](CCCCN)C(N)=O` [LLKWLKKLLKK], for which the minimal inhibitory concentration (MIC) worked out at 2.84 µM (≈ 4 µg/mL) in assay [11]; 1.42 µM (≈ 2 µg/mL) in assay [45]; 1.42 µM (≈ 2 µg/mL) in assay [15]; 11.3 µM (≈ 16 µg/mL) in assay [46]; 2.84 µM (≈ 4 µg/mL) in assay [3]; 2.84 µM (≈ 4 µg/mL) in [47]. In addition, the MIC in assay [48] was 2.84 µM (≈ 4 µg/mL); in [49] it was 1.42 µM (≈ 2 µg/mL); in assay [50], 1.42 µM (≈ 2 µg/mL); in assay [51], 2.84 µM (≈ 4 µg/mL).
